# Reference: patent publication US9204653B2, “5-fluoro pyrimidine derivatives” (DOW AGROSCIENCES LLC, priority 2008, dated 2015)
# Like-named read-outs stand apart in the source and are kept apart here.
# System: Mycosphaerella graminicola; Anamorph: Septoria tritici; Bayer Code SEPTTR
# Experiment: Leaf blotch of wheat, foliar fungicide treatment, one day protectant (1DP) or three day curative (3DC)
# Format: in vivo, Septoria tritici on wheat plants (variety Yuma)
# Conditions: Zymoseptoria tritici; for pest or weed control at 50 ppm / pest or weed control at 200 ppm: % disease control rating
# [1] = 24 h, one day protectant, 25 ppm, rating of percent disease control, read-out: SETTTR 1DP 25 ppm
# [2] = 24 h, one day protectant, rating of percent disease control, read-out: SEPTTR 1DP 100 ppm
# [3] = 72 h, three day curative, 25 ppm, rating of percent disease control, read-out: SEPTTR 3DC 25 ppm
# [4] = 72 h, three day curative, rating of percent disease control, read-out: SEPTTR 3DC 100 ppm
# [5] = 24 h, one day protectant (1DP), 25 ppm, rating of percent disease control, read-out: SETTTR 1DP 25 ppm
# [6] = 24 h, one day protectant (1DP), rating of percent disease control, read-out: SEPTTR 1DP 100 ppm
# [7] = 72 h, three day curative (3DC), 25 ppm, rating of percent disease control, read-out: SEPTTR 3DC 25 ppm
# [8] = 72 h, three day curative (3DC), rating of percent disease control, read-out: SEPTTR 3DC 100 ppm
# [9] = 24 h, one day protectant (1DP), 25 ppm, percent disease control rating, read-out: SETTTR 1DP 25 ppm
# [10] = 24 h, one day protectant (1DP), percent disease control rating, read-out: SEPTTR 1DP 100 ppm
# [11] = 72 h, three day curative (3DC), 25 ppm, percent disease control rating, read-out: SEPTTR 3DC 25 ppm
# [12] = 72 h, three day curative (3DC), percent disease control rating, read-out: SEPTTR 3DC 100 ppm
# [13] = 24 h, one day protectant (1DP), 25 ppm (first 1DP column), percent control rating, read-out: SETTTR 1DP 25 ppm
# [14] = 24 h, one day protectant (1DP), 25 ppm as printed (second 1DP column), percent control rating, read-out: SETTTR 1DP 25 ppm
# [15] = 72 h, three day curative (3DC), 25 ppm, percent control rating, read-out: SEPTTR 3DC 25 ppm
# [16] = 72 h, three day curative (3DC), percent control rating, read-out: SEPTTR 3DC 100 ppm
structure (smiles),measurement,setting,value
Fc1ccc(COc2ncc(F)c(NCCc3ccccc3)n2)cc1 [Compound 805],pest or weed control at 50 ppm,"24 h, one day protectant",51 to 75%
same,pest or weed control at 200 ppm,"24 h, one day protectant",76 to 100%
O=C(Nc1nc(OCc2ccc(F)cc2)ncc1F)c1cccc(CBr)c1 [Compound 703],pest or weed control at 25 ppm,[1],0 to 25%
same,pest or weed control at 100 ppm,[2],26 to 50%
same,pest or weed control at 25 ppm,[3],0 to 25%
same,pest or weed control at 100 ppm,[4],0 to 25%
O=[N+]([O-])c1ccccc1SNc1nc(OCc2c(F)cc(Br)cc2F)ncc1F [Compound 479],pest or weed control at 25 ppm,[5],76 to 100%
same,pest or weed control at 100 ppm,[6],76 to 100%
same,pest or weed control at 25 ppm,[7],51 to 75%
same,pest or weed control at 100 ppm,[8],51 to 75%
C[C@H](Oc1ncc(F)c(N)n1)c1ccc(Br)cc1 [Compound 103],pest or weed control at 25 ppm,[9],76 to 100%
same,pest or weed control at 100 ppm,[10],76 to 100%
same,pest or weed control at 25 ppm,[11],51 to 75%
same,pest or weed control at 100 ppm,[12],76 to 100%
CN(C)/C=N/c1nc(OS(=O)(=O)c2cccs2)ncc1F [Compound 89],pest or weed control at 25 ppm,[9],76 to 100%
same,pest or weed control at 100 ppm,[10],76 to 100%
same,pest or weed control at 25 ppm,[11],76 to 100%
same,pest or weed control at 100 ppm,[12],76 to 100%
CC[Si](CC)(CC)Nc1nc(OCc2ccc(OC)c(F)c2)ncc1F [Compound 702],pest or weed control at 25 ppm,[1],76 to 100%
same,pest or weed control at 100 ppm,[2],76 to 100%
same,pest or weed control at 25 ppm,[3],76 to 100%
same,pest or weed control at 100 ppm,[4],76 to 100%
Fc1cnc(OCc2cc(Cl)cc(Cl)c2)nc1NCc1cccs1 [Compound 814],pest or weed control at 200 ppm,"24 h, one day protectant",76 to 100%
Oc1ncc(F)c(N/N=C/c2ccco2)n1 [Compound 1112],pest or weed control at 25 ppm,[13],0 to 25%
same,pest or weed control at 25 ppm,[14],0 to 25%
same,pest or weed control at 25 ppm,[15],0 to 25%
same,pest or weed control at 100 ppm,[16],26 to 50%
Fc1cnc(OCc2ccccc2)nc1NNc1cccc(C(F)(F)F)c1 [Compound 1029],pest or weed control at 25 ppm,[13],0 to 25%
same,pest or weed control at 25 ppm,[14],0 to 25%
same,pest or weed control at 25 ppm,[15],0 to 25%
same,pest or weed control at 100 ppm,[16],0 to 25%
COc1cccc(C(=O)Oc2ncc(F)c(/N=C/N(C)C)n2)c1 [Compound 767],pest or weed control at 25 ppm,[5],76 to 100%
same,pest or weed control at 100 ppm,[6],76 to 100%
same,pest or weed control at 25 ppm,[7],76 to 100%
same,pest or weed control at 100 ppm,[8],76 to 100%
CC[Si](CC)(CC)Nc1nc(OCCCOC)ncc1F [Compound 279],pest or weed control at 25 ppm,[5],51 to 75%
same,pest or weed control at 100 ppm,[6],76 to 100%
same,pest or weed control at 25 ppm,[7],76 to 100%
same,pest or weed control at 100 ppm,[8],76 to 100%
Fc1cnc(OCCc2ccccc2)nc1NC1CC1 [Compound 940],pest or weed control at 50 ppm,"24 h, one day protectant",0 to 25%
same,pest or weed control at 200 ppm,"24 h, one day protectant",0 to 25%
Fc1ccccc1CNc1nc(OCc2ccccc2)ncc1F [Compound 750],pest or weed control at 25 ppm,[5],26 to 50%
same,pest or weed control at 100 ppm,[6],76 to 100%
same,pest or weed control at 25 ppm,[7],26 to 50%
same,pest or weed control at 100 ppm,[8],51 to 75%
Nc1nc(OCc2ccnc(Cl)c2)ncc1F [Compound 308],pest or weed control at 25 ppm,[5],76 to 100%
same,pest or weed control at 100 ppm,[6],76 to 100%
same,pest or weed control at 25 ppm,[7],76 to 100%
same,pest or weed control at 100 ppm,[8],76 to 100%
Cn1ccc2cc(COc3ncc(F)c(N)n3)ccc21 [Compound 511],pest or weed control at 25 ppm,[5],51 to 75%
same,pest or weed control at 100 ppm,[6],51 to 75%
same,pest or weed control at 25 ppm,[7],26 to 50%
same,pest or weed control at 100 ppm,[8],26 to 50%
Cc1ccccc1COc1ncc(F)c(N)n1 [Compound 733],pest or weed control at 25 ppm,[1],76 to 100%
same,pest or weed control at 100 ppm,[2],76 to 100%
same,pest or weed control at 25 ppm,[3],76 to 100%
same,pest or weed control at 100 ppm,[4],76 to 100%
CCCCCOC(=O)Nc1nc(OCc2ccc(C)cc2)ncc1F [Compound 986],pest or weed control at 25 ppm,[13],76 to 100%
same,pest or weed control at 25 ppm,[14],76 to 100%
same,pest or weed control at 25 ppm,[15],76 to 100%
same,pest or weed control at 100 ppm,[16],76 to 100%
O=C(Nc1ccsc1)Nc1nc(OCc2ccc(F)cc2)ncc1F [Compound 587],pest or weed control at 25 ppm,[1],0 to 25%
same,pest or weed control at 100 ppm,[2],0 to 25%
same,pest or weed control at 25 ppm,[3],26 to 50%
same,pest or weed control at 100 ppm,[4],76 to 100%
CN(Cc1ccc(C(F)(F)F)cc1)c1nc(O)ncc1F [Compound 1071],pest or weed control at 25 ppm,[13],0 to 25%
same,pest or weed control at 25 ppm,[14],26 to 50%
same,pest or weed control at 25 ppm,[15],26 to 50%
same,pest or weed control at 100 ppm,[16],26 to 50%
Nc1nc(OCc2ccc(Cl)cc2)ncc1F [Compound 689],pest or weed control at 25 ppm,[1],76 to 100%
same,pest or weed control at 100 ppm,[2],76 to 100%
same,pest or weed control at 25 ppm,[3],76 to 100%
same,pest or weed control at 100 ppm,[4],76 to 100%
COc1nn(C)c(C(F)(F)F)c1S(=O)(=O)Nc1nc(O)ncc1F [Compound 1106],pest or weed control at 25 ppm,[13],0 to 25%
same,pest or weed control at 25 ppm,[14],0 to 25%
same,pest or weed control at 25 ppm,[15],0 to 25%
same,pest or weed control at 100 ppm,[16],0 to 25%
